{
  "source": "patent US10960005B2",
  "about": "“Treatment of relapsed and/or refractory solid tumors and non-hodgkin's lymphomas” (CELGENE QUANTICEL RESEARCH, INC., priority 2016, dated 2021)",
  "key": {"[1]": {"test": "Pharmacokinetics after single IV and oral dose, Cynomolgus monkeys", "assay_type": "in vivo", "settings": "Monkey, male", "method": "(§1) AUClast=area under the plasma concentration-time curve from time zero to time of last measurable concentration; Cmax=maximum plasma concentration; F=oral bioavailability; hr=hour, PK=pharmacokinetic; SD=standard deviation; t1/2 z=apparent half-life of the terminal phase of the concentration-time curve; tmax=time of Cmax. In mouse, PK parameters were determined using composite plasma samples obtained from n=3animals/time point. In other species, PK parameters are from n=3 animals and values shown are mean and SD (in parentheses)."}, "[2]": {"test": "4-week toxicity study with 4-week recovery in mice", "assay_type": "in vivo", "settings": "for AUC0-24 / Cmax: Mice"}, "[3]": {"test": "Pharmacokinetics after single IV and oral dose, Beagle dogs", "assay_type": "in vivo", "settings": "Dog, male", "method": "as §1"}, "LNCaP cells": {"system": "LNCaP cells", "test": "LNCaP cell proliferation with DHT and irradiation", "assay_type": "cell-based, human", "settings": "100 nM Compound A + 10 nM DHT + 2Gy irradiation vs DHT with irradiation or DHT with Compound A; 220 hours", "method": "LNCaP cells are androgen-sensitive human prostate adenocarcinoma cells. […] The proliferation of the LNCap cells was monitored for 220 hours."}, "[4]": {"settings": "5 mg base/kg/dose QD×5/week, females"}, "[5]": {"settings": "5 mg base/kg/dose QD×5/week, males"}, "[6]": {"settings": "25 mg base/kg/dose QOD×3/week, females"}, "[7]": {"settings": "45 mg base/kg/dose QD×5/week, females"}, "[8]": {"settings": "45 mg base/kg/dose QD×5/week, males"}, "[9]": {"settings": "Day 1, 15 mg base/kg/dose oral, 5 days on/2 days off, F"}, "[10]": {"settings": "Day 26, 5 mg base/kg/dose oral, 5 days on/2 days off, F"}, "[11]": {"settings": "Day 26, 5 mg base/kg/dose oral, 5 days on/2 days off, M"}, "[12]": {"settings": "Day 26, 15 mg base/kg/dose oral, 5 days on/2 days off, M"}, "[13]": {"settings": "Day 26, 25 mg base/kg/dose oral, QOD × 3/week, F"}, "[14]": {"settings": "Day 26, 25 mg base/kg/dose oral, QOD × 3/week, M"}, "[15]": {"settings": "Day 26, 45 mg base/kg/dose oral, 5 days on/2 days off, F"}, "[16]": {"settings": "Day 26, 45 mg base/kg/dose oral, 5 days on/2 days off, M"}},
  "data": [
    {"compound": "COc1ccc(-c2c(-c3ccc(C#N)c(F)c3)nc(N3CCC(N)CC3)n(C)c2=O)cc1F", "note": "[Compound A]", "values": [
      {"measurement": "AUC∞", "setting": "[1]; single IV 1 mg base/kg", "result": 0.983, "unit": "µg·h/mL"},
      {"measurement": "CL", "setting": "[1]; single IV 1 mg base/kg", "result": 1.08, "unit": "L/h/kg"},
      {"measurement": "Vss", "setting": "[1]; single IV 1 mg base/kg", "result": 17.119, "unit": "L/kg"},
      {"measurement": "t1/2,z", "setting": "[1]; single IV 1 mg base/kg", "result": 12.0, "unit": "h"},
      {"measurement": "% F", "setting": "[1]; single oral 5 mg base/kg", "result": 82, "unit": "%"},
      {"measurement": "AUClast", "setting": "[1]; single oral 5 mg base/kg", "result": 3.618, "unit": "µg·h/mL"},
      {"measurement": "Cmax", "setting": "[1]; single oral 5 mg base/kg", "result": 0.187, "unit": "µg/mL"},
      {"measurement": "t1/2,z", "setting": "[1]; single oral 5 mg base/kg", "result": 12.9, "unit": "h"},
      {"measurement": "tmax", "setting": "[1]; single oral 5 mg base/kg", "result": 6.0, "unit": "h"},
      {"measurement": "mean steady state AUC0-24", "setting": "[2]; [4]", "result": "2,410 ng·hr/mL"},
      {"measurement": "mean steady state Cmax", "setting": "[2]; [4]", "result": 276, "unit": "ng/mL"},
      {"measurement": "mean steady state AUC0-24", "setting": "[2]; [5]", "result": "2,010 ng·hr/mL"},
      {"measurement": "mean steady state Cmax", "setting": "[2]; [5]", "result": 276, "unit": "ng/mL"},
      {"measurement": "mean steady state AUC0-24", "setting": "[2]; [6]", "result": "17,500 ng·hr/mL"},
      {"measurement": "mean steady state Cmax", "setting": "[2]; [6]", "result": "1,740 ng/mL"},
      {"measurement": "mean steady state Cmax", "setting": "[2]; 25 mg base/kg/dose QOD×3/week, males", "result": "1,450 ng/mL"},
      {"measurement": "animals sacrificed in moribund condition", "setting": "[2]; 45 mg base/kg/dose QD×5/week, 4 males and 1 female, TK subgroup", "result": "Five"},
      {"measurement": "mean steady state AUC0-24", "setting": "[2]; [7]", "result": "26,500 ng·hr/mL"},
      {"measurement": "mean steady state Cmax", "setting": "[2]; [7]", "result": "2,130 ng/mL"},
      {"measurement": "mean steady state AUC0-24", "setting": "[2]; [8]", "result": "29,000 ng·hr/mL"},
      {"measurement": "mean steady state Cmax", "setting": "[2]; [8]", "result": "2,620 ng/mL"},
      {"measurement": "AUC0-24", "setting": "[2]; Day 1, 5 mg base/kg/dose oral, 5 days on/2 days off, F", "result": 1.5, "unit": "µg·h/mL"},
      {"measurement": "Cmax", "setting": "[2]; Day 1, 5 mg base/kg/dose oral, 5 days on/2 days off, M", "result": 0.23, "unit": "µg/mL"},
      {"measurement": "AUC0-24", "setting": "[2]; [9]", "result": 9.68, "unit": "µg·h/mL"},
      {"measurement": "Cmax", "setting": "[2]; [9]", "result": 0.85, "unit": "µg/mL"},
      {"measurement": "AUC0-24", "setting": "[2]; Day 1, 15 mg base/kg/dose oral, 5 days on/2 days off, M", "result": 13, "unit": "µg·h/mL"},
      {"measurement": "AUC0-24", "setting": "[2]; [10]", "result": 2.41, "unit": "µg·h/mL"},
      {"measurement": "Cmax", "setting": "[2]; [10]", "result": 0.276, "unit": "µg/mL"},
      {"measurement": "AUC0-24", "setting": "[2]; [11]", "result": 2.01, "unit": "µg·h/mL"},
      {"measurement": "Cmax", "setting": "[2]; [11]", "result": 0.275, "unit": "µg/mL"},
      {"measurement": "AUC0-24", "setting": "[2]; [12]", "result": 7.96, "unit": "µg·h/mL"},
      {"measurement": "Cmax", "setting": "[2]; [12]", "result": 0.628, "unit": "µg/mL"},
      {"measurement": "AUC0-24", "setting": "[2]; [13]", "result": 17.5, "unit": "µg·h/mL"},
      {"measurement": "Cmax", "setting": "[2]; [13]", "result": 1.74, "unit": "µg/mL"},
      {"measurement": "AUC0-24", "setting": "[2]; [14]", "result": 17.8, "unit": "µg·h/mL"},
      {"measurement": "Cmax", "setting": "[2]; [14]", "result": 1.45, "unit": "µg/mL"},
      {"measurement": "AUC0-24", "setting": "[2]; [15]", "result": 26.5, "unit": "µg·h/mL"},
      {"measurement": "Cmax", "setting": "[2]; [15]", "result": 2.13, "unit": "µg/mL"},
      {"measurement": "AUC0-24", "setting": "[2]; [16]", "result": 29, "unit": "µg·h/mL"},
      {"measurement": "Cmax", "setting": "[2]; [16]", "result": 2.62, "unit": "µg/mL"},
      {"measurement": "STD10", "setting": "[2]; QD ×5/week schedule", "result": "≥ 45", "unit": "mg base/kg/dose"},
      {"measurement": "AUC∞", "setting": "[3]; single IV 1 mg base/kg", "result": 1.944, "unit": "µg·h/mL"},
      {"measurement": "CL", "setting": "[3]; single IV 1 mg base/kg", "result": 0.54, "unit": "L/h/kg"},
      {"measurement": "Vss", "setting": "[3]; single IV 1 mg base/kg", "result": 11.058, "unit": "L/kg"},
      {"measurement": "t1/2,z", "setting": "[3]; single IV 1 mg base/kg", "result": 15.5, "unit": "h"},
      {"measurement": "% F", "setting": "[3]; single oral 1 mg base/kg", "result": 84, "unit": "%"},
      {"measurement": "AUClast", "setting": "[3]; single oral 1 mg base/kg", "result": 1.089, "unit": "µg·h/mL"},
      {"measurement": "Cmax", "setting": "[3]; single oral 1 mg base/kg", "result": 0.069, "unit": "µg/mL"},
      {"measurement": "t1/2,z", "setting": "[3]; single oral 1 mg base/kg", "result": 15.0, "unit": "h"},
      {"measurement": "tmax", "setting": "[3]; single oral 1 mg base/kg", "result": 2.0, "unit": "h"},
      {"measurement": "% F", "setting": "[3]; single oral 3 mg base/kg", "result": 100, "unit": "%"},
      {"measurement": "AUClast", "setting": "[3]; single oral 3 mg base/kg", "result": 3.792, "unit": "µg·h/mL"},
      {"measurement": "Cmax", "setting": "[3]; single oral 3 mg base/kg", "result": 0.298, "unit": "µg/mL"},
      {"measurement": "t1/2,z", "setting": "[3]; single oral 3 mg base/kg", "result": 19.4, "unit": "h"},
      {"measurement": "tmax", "setting": "[3]; single oral 3 mg base/kg", "result": 1.0, "unit": "h"},
      {"measurement": "% F", "setting": "[3]; single oral 6 mg base/kg", "result": 100, "unit": "%"},
      {"measurement": "AUClast", "setting": "[3]; single oral 6 mg base/kg", "result": 8.792, "unit": "µg·h/mL"},
      {"measurement": "Cmax", "setting": "[3]; single oral 6 mg base/kg", "result": 0.627, "unit": "µg/mL"},
      {"measurement": "t1/2,z", "setting": "[3]; single oral 6 mg base/kg", "result": 17.8, "unit": "h"},
      {"measurement": "tmax", "setting": "[3]; single oral 6 mg base/kg", "result": 1.0, "unit": "h"},
      {"measurement": "LNCaP cell proliferation", "setting": "LNCaP cells", "result": "significantly inhibits LNCaP cell proliferation"}
    ]}
  ]
}
